The source of these data is patent US20240239775A1, “FXR REGULATOR, PREPARATION METHOD THEREFOR, PHARMACEUTICAL COMPOSITION THEREOF AND USE THEREOF” (QINGDAO RUIJI MEDICAL TECHNOLOGY CO., LTD., priority 2021, published 2024).

In one data set the target is T1, FXR (Homo sapiens, UniProt Q96RI1).
T1 construct: 5 μL of 20 nM FXR-LBD Complete Coregulator buffer G; purchased ThermoFisher PV4833
T1 sequence (Q96RI1 262-486 limits assumed): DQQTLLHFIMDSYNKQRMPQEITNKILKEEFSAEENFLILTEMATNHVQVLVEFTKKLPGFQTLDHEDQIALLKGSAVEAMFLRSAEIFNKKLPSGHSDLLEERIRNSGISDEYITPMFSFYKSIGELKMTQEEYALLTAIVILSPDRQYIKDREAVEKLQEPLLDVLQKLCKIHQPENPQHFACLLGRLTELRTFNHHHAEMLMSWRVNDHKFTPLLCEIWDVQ
In words: FXR antagonist screening by TR-FRET (LanthaScreen TR-FRET FXR co-activation assay kit). To be noted: Table 1.1, FXR antagonistic activity; TR-FRET with CDCA; geometric means of at least two independent runs. Type of data set: biochemical. The procedure, abridged:
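FXR-LBD (20 nM working solution) mixed with compound, CDCA (200 μM working solution) as agonist, Fluorescein-SRC2-2 and Tb-anti-GST antibody in Coregulator buffer G; 10 h at room temperature. Coactivator recruitment read by TR-FRET, triplicate wells.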
On the technique in general: TR-FRET usually uses a lanthanide donor and a delayed reading to cut background.

Consider `Cc1c(C(=O)O)oc2ccc(S(=O)(=O)N(CCc3ccccc3)Cc3ccccc3C(F)(F)F)cc12` [Example F27-S18, 3-methyl-5-(N-(2-trifluoromethylbenzyl)-N-phenethylsulfamoyl)benzofuran-2-carboxylic acid], for which the melting point was 138 to 139 °C. For the same compound, the 50% inhibitory concentration (IC50) against FXR is 10 to 50 µM.
Compound `Cc1c(C(=O)O)oc2ccc(S(=O)(=O)N(CCc3ccccc3)Cc3ccccc3[N+](=O)[O-])cc12` [Example F27-S19, 3-methyl-5-(N-(2-nitrobenzyl)-N-phenethylsulfamoyl)benzofuran-2-carboxylic acid] registered a melting point of 180 to 181 °C. Besides, the concentration for half-maximal inhibition (IC50) against FXR was 10 to 50 µM.
Consider `Cc1c(C(=O)O)oc2ccc(S(=O)(=O)N(CCc3ccccc3)Cc3cccc(F)c3)cc12` [Example F27-S20, 3-methyl-5-(N-(3-fluorobenzyl)-N-phenethylsulfamoyl)benzofuran-2-carboxylic acid], for which the melting point is > 380 °C (dec.). On FXR, this compound yielded a half-inhibitory concentration (IC50) of 10 to 50 µM.
In the same order, the values of `Cc1c(C(=O)O)oc2ccc(S(=O)(=O)N(CCc3ccccc3)Cc3cccc(Cl)c3)cc12` [Example F27-S21, 3-methyl-5-(N-(3-chlorobenzyl)-N-phenethylsulfamoyl)benzofuran-2-carboxylic acid] are > 380 °C (dec.) and 10 to 50 µM.
For `Cc1c(C(=O)O)oc2ccc(S(=O)(=O)N(CCc3ccccc3)Cc3cccc(Br)c3)cc12` [Example F27-S22, 3-methyl-5-(N-(3-bromobenzyl)-N-phenethylsulfamoyl)benzofuran-2-carboxylic acid], in that order: > 380 °C (dec.) and 10 to 50 µM.
For `Cc1cccc(CN(CCc2ccccc2)S(=O)(=O)c2ccc3oc(C(=O)O)c(C)c3c2)c1` [Example F27-S23, 3-methyl-5-(N-(3-methylbenzyl)-N-phenethylsulfamoyl)benzofuran-2-carboxylic acid], in that order: > 380 °C (dec.) and 10 to 50 µM.
Take `Cc1c(C(=O)O)oc2ccc(S(=O)(=O)N(CCc3ccccc3)Cc3cccc(C(F)(F)F)c3)cc12` [Example F27-S24, 3-methyl-5-(N-(3-trifluoromethylbenzyl)-N-phenethylsulfamoyl)benzofuran-2-carboxylic acid]: the melting point was 188 to 189 °C. The compound further came in with a concentration for half-maximal inhibition (IC50) on FXR of 50 to 100 µM.
Take `Cc1c(C(=O)O)oc2ccc(S(=O)(=O)N(CCc3ccccc3)Cc3cccc([N+](=O)[O-])c3)cc12` [Example F27-S25, 3-methyl-5-(N-(3-nitrobenzyl)-N-phenethylsulfamoyl)benzofuran-2-carboxylic acid]: the melting point was > 380 °C (dec.). For the same compound, the concentration for half-maximal inhibition (IC50) against FXR lay within 10 to 50 µM.
Take `Cc1c(C(=O)O)oc2ccc(S(=O)(=O)N(CCc3ccccc3)Cc3cccc(-c4ccccc4)c3)cc12` [Example F27-S26, 3-methyl-5-(N-([1,1′-biphenyl]-3-ylmethyl)-N-phenethylsulfamoyl)benzofuran-2-carboxylic acid]: the melting point is > 380 °C (dec.). For the same compound, the IC50 against FXR lay within 10 to 50 µM.
For `Cc1c(C(=O)O)oc2ccc(S(=O)(=O)N(CCc3ccccc3)Cc3cccc(Oc4ccccc4)c3)cc12` [Example F27-S27, 3-methyl-5-(N-(3-phenoxybenzyl)-N-phenethylsulfamoyl)benzofuran-2-carboxylic acid], in that order: greater than 183 °C and 10 to 50 µM.
For `Cc1c(C(=O)O)oc2ccc(S(=O)(=O)N(CCc3ccccc3)Cc3ccc(F)cc3)cc12` [Example F27-S28, 3-methyl-5-(N-(4-fluorobenzyl)-N-phenethylsulfamoyl)benzofuran-2-carboxylic acid], in that order: 188 to 189 °C and 10 to 50 µM.
`Cc1c(C(=O)O)oc2ccc(S(=O)(=O)N(CCc3ccccc3)Cc3ccc(Cl)cc3)cc12` [Example F27-S29, 3-methyl-5-(N-(4-chlorobenzyl)-N-phenethylsulfamoyl)benzofuran-2-carboxylic acid] showed a melting point of 172 to 173 °C. Further, the half-inhibitory concentration (IC50) against FXR was 10 to 50 µM.
On to `Cc1ccc(CN(CCc2ccccc2)S(=O)(=O)c2ccc3oc(C(=O)O)c(C)c3c2)cc1` [Example F27-S31, 3-methyl-5-(N-(4-methylbenzyl)-N-phenethylsulfamoyl)benzofuran-2-carboxylic acid], for which the melting point is > 380 °C (dec.). The compound also registered a 50% inhibitory concentration (IC50) against FXR of 10 to 50 µM.
In the same order, the values of `Cc1c(C(=O)O)oc2ccc(S(=O)(=O)N(CCc3ccccc3)Cc3ccc(C(F)(F)F)cc3)cc12` [Example F27-S32, 3-methyl-5-(N-(4-(trifluoromethyl)benzyl)-N-phenethylsulfamoyl)benzofuran-2-carboxylic acid] are greater than 192 °C and 10 to 50 µM.
For `Cc1c(C(=O)O)oc2ccc(S(=O)(=O)N(CCc3ccccc3)Cc3ccc(C(N)=O)cc3)cc12` [Example F27-S33, 3-methyl-5-(N-(4-carbamoylbenzyl)-N-phenethylsulfamoyl)benzofuran-2-carboxylic acid], in that order: > 380 °C (dec.) and 50 to 100 µM.
Regarding `Cc1c(C(=O)O)oc2ccc(S(=O)(=O)N(CCc3ccccc3)Cc3ccc(OC(F)(F)F)cc3)cc12` [Example F27-S34, 3-methyl-5-(N-(4-(trifluoromethoxy)benzyl)-N-phenethylsulfamoyl)benzofuran-2-carboxylic acid], the melting point is 216 to 217 °C. At FXR, this compound showed a half-inhibitory concentration (IC50) of 10 to 50 µM.
Compound `Cc1c(C(=O)O)oc2ccc(S(=O)(=O)N(CCc3ccccc3)Cc3ccc(SC(F)(F)F)cc3)cc12` [Example F27-S35, 3-methyl-5-(N-(4-(trifluoromethylthio)benzyl)-N-phenethylsulfamoyl)benzofuran-2-carboxylic acid] registered a melting point of 165 to 166 °C. Further, the 50% inhibitory concentration (IC50) at FXR lay within 10 to 50 µM.
Take `Cc1c(C(=O)O)oc2ccc(S(=O)(=O)N(CCc3ccccc3)Cc3ccc(C(C)C)cc3)cc12` [Example F27-S36, 3-methyl-5-(N-(4-isopropylbenzyl)-N-phenethylsulfamoyl)benzofuran-2-carboxylic acid]: the melting point was in the range of 206 to 207 °C. At FXR, this compound came in with an IC50 of 10 to 50 µM.
The compound `Cc1c(C(=O)O)oc2ccc(S(=O)(=O)N(CCc3ccccc3)Cc3ccc(C(C)(C)C)cc3)cc12` [Example F27-S37, 3-methyl-5-(N-(4-tert-butylbenzyl)-N-phenethylsulfamoyl)benzofuran-2-carboxylic acid] displayed a melting point of 206 to 207 °C. The same compound returned an IC50 against FXR of 10 to 50 µM.
On to `CC(=O)c1ccc(CN(CCc2ccccc2)S(=O)(=O)c2ccc3oc(C(=O)O)c(C)c3c2)cc1` [Example F27-S38, 3-methyl-5-(N-(4-acetylbenzyl)-N-phenethylsulfamoyl)benzofuran-2-carboxylic acid], for which the melting point is > 380 °C (dec.). The same compound displayed an IC50 on FXR of 50 to 100 µM.
For `Cc1c(C(=O)O)oc2ccc(S(=O)(=O)N(CCc3ccccc3)Cc3ccc(C(=O)O)cc3)cc12` [Example F27-S39, 3-methyl-5-(N-(4-carboxybenzyl)-N-phenethylsulfamoyl)benzofuran-2-carboxylic acid], in that order: 254 to 255 °C and 50 to 100 µM.
For the compound `Cc1c(C(=O)O)oc2ccc(S(=O)(=O)N(CCc3ccccc3)Cc3ccc(CC(=O)O)cc3)cc12` [Example F27-S41, 3-methyl-5-(N-(4-(carboxymethyl)benzyl)-N-phenethylsulfamoyl)benzofuran-2-carboxylic acid], the melting point lay within 182 to 183 °C. The compound further displayed a 50% inhibitory concentration (IC50) against FXR of 50 to 100 µM.
As for `Cc1c(C(=O)O)oc2ccc(S(=O)(=O)N(CCc3ccccc3)Cc3ccc(/C=C/C(=O)O)cc3)cc12` [Example F27-S42, (E)-3-methyl-5-(N-(4-(2-carboxyvinyl)benzyl)-N-phenethylsulfamoyl)benzofuran-2-carboxylic acid], the melting point is 270 to 271 °C. On FXR, this compound came in with an IC50 of 50 to 100 µM.
For `Cc1c(C(=O)O)oc2ccc(S(=O)(=O)N(CCc3ccccc3)Cc3ccc4ccccc4c3)cc12` [Example F27-S45, 3-methyl-5-(N-(naphthalen-2-ylmethyl)-N-phenethylsulfamoyl)benzofuran-2-carboxylic acid], the melting point is > 380 °C (dec.). The 50% inhibitory concentration (IC50) against FXR fell in the range of 10 to 50 µM.
Turning to `Cc1c(C(=O)O)oc2ccc(S(=O)(=O)N(CCc3ccccc3)Cc3c(F)cccc3F)cc12` [Example F27-S46, 3-methyl-5-(N-(2,6-difluorobenzyl)-N-phenethylsulfamoyl)benzofuran-2-carboxylic acid], the melting point was in the range of 180 to 181 °C. Also, the IC50 at FXR was in the range of 10 to 50 µM.
As for `Cc1c(C(=O)O)oc2ccc(S(=O)(=O)N(CCc3ccccc3)Cc3c(F)cccc3Cl)cc12` [Example F27-S47, 3-methyl-5-(N-(2-fluoro-6-chlorobenzyl)-N-phenethylsulfamoyl)benzofuran-2-carboxylic acid], the melting point lay within 195 to 196 °C. Moreover, the IC50 against FXR lay in the range of 0.1 to 10 µM.
Compound `Cc1c(C(=O)O)oc2ccc(S(=O)(=O)N(CCc3ccccc3)Cc3c(F)cccc3C(F)(F)F)cc12` [Example F27-S48, 3-methyl-5-(N-(2-fluoro-6-(trifluoromethyl)benzyl)-N-phenethylsulfamoyl)benzofuran-2-carboxylic acid] returned a melting point of 99 to 100 °C. On FXR, the half-maximal inhibitory concentration (IC50) fell in the range of 10 to 50 µM.

A word on the IC50: it is the point on the concentration scale where inhibition reaches its midpoint. A low value points to higher potency. The term melting point denotes the temperature, or range, at which the solid turns liquid.
